The target of test [1] is T1, purified IIb-IIIa (Homo sapiens, UniProt P05106+P08514). In words: Competition binding to purified IIb-IIIa immobilized in microtiter plates. The following applies: 125I-Fab-9 challenged with unlabeled fibrinogen (FIG. 1B). The method, then: FIGS. 1A and 1B. Fibrinogen and Fab-9 bind distinct sites on IIb-IIIa. Studies were conducted with purified IIb-IIIa to determine whether Fab-9 (an RGD mimic) and fibrinogen bind to the same site on the integrin. IIb-IIIa was immobilized in microtiter plates and was allowed to bind either ^125 I-fibrinogen (FIG. 1A) or to ^125 I-Fab-9 (FIG. 1B). The binding of ^125 I-fibrinogen was challenged with unlabeled Fab-9. Similarly, the binding of ^125 I-Fab-9 was challenged with unlabeled fibrinogen.
T1 sequence (P08514 32-887 limits assumed): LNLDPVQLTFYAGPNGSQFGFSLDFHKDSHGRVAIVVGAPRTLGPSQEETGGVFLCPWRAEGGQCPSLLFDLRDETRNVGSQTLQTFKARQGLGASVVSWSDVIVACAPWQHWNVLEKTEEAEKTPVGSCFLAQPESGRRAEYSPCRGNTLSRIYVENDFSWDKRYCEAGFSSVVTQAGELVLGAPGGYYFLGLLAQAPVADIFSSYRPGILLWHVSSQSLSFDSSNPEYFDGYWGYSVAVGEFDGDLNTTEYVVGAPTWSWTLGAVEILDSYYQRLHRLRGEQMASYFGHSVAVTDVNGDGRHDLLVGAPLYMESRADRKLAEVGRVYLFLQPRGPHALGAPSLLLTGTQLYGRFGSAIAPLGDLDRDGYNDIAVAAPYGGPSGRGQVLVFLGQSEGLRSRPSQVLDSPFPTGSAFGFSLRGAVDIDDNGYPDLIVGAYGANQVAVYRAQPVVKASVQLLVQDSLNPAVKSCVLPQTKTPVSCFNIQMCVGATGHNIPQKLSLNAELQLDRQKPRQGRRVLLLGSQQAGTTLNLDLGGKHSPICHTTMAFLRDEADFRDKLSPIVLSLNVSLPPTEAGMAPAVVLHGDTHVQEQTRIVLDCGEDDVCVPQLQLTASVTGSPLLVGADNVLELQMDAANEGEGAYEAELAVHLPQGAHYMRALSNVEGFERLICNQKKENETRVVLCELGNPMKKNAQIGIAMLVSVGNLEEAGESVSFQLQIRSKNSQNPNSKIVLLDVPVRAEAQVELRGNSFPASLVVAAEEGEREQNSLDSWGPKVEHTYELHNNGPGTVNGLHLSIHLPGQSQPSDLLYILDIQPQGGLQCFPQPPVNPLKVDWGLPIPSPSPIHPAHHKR
T1 sequence (P08514 891-1039 limits assumed): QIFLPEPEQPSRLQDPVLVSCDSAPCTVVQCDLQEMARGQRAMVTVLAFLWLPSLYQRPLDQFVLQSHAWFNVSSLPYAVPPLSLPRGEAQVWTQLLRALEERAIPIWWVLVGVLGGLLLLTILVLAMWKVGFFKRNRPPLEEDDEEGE
T1 sequence (P05106 27-788): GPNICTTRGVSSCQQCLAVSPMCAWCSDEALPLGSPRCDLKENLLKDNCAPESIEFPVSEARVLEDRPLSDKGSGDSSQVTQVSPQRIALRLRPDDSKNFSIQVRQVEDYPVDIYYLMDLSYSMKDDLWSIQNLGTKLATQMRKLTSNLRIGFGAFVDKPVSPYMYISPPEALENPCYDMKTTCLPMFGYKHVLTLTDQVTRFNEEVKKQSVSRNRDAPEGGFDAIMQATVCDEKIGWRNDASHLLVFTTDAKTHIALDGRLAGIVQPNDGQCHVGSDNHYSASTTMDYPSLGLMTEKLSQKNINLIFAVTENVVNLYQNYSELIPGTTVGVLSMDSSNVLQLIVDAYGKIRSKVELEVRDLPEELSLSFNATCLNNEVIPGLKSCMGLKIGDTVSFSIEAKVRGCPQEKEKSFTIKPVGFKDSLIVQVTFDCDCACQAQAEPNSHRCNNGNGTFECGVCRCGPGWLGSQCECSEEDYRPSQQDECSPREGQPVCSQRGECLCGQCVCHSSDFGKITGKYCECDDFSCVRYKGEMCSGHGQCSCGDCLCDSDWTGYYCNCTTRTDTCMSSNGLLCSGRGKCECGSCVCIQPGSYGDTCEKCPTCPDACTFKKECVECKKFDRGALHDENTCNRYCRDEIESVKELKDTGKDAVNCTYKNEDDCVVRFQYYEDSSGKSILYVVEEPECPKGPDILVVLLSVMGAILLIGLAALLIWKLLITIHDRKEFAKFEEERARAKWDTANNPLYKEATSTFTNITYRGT
To determine if fibrinogen and Fab-9 actually bind the same site on IIb-IIIa, a series of competition binding studies were carried out. The ability of the two ligands to compete for binding to IIB-IIIa was measured. Fab-9 blocked the binding of fibrinogen to IIB-IIIa (FIG. 1A). […] These sites are designated as Site I, which binds to Fab-9 and Site II, which interacts with fibrinogen (FIG. 2).

Test [2] concerns the target T1, purified IIb-IIIa. In words: Surface Plasmon Resonance, real-time dissociation of ligands from IIb-IIIa. Type of test: binding. The following applies: fibrinogen immobilized on sensor chip, without 52012 (FIG. 4B). How it is done:
FIGS. 4A and 4B. Measuring the ability of 52012 to dissociate fibrinogen and Fab-9 from IIb-IIIa in real time. Studies were performed with Surface Plasmon Resonance to examine the ability of 52012 to induce the dissociation of ligands from IIb-IIIa. Fab-9 (FIG. 4A) or fibrinogen (FIG. 4B) were immobilized on the sensor chip and then allowed to bind to purified IIb-IIIa. At a specific time, 52012 was introduced by injection into the flow cell.
In one embodiment, ILDs can be identified by the ability to increase the rate of dissociation between an integrin and its natural ligand, or a known mimic of its natural ligand, with Surface Plasmon Resonance (SPR), for example, using the BIACORE Surface Plasmon Resonance™ instrument. SPR is a technique that measures ligand association and dissociation in "real time." To screen for an ILD using plasmon resonance, the following steps would be taken:
It is important to note that the configuration of the assay could take several different forms. For example, rather than immobilizing the integrin on the sensor chip, one could immobilize the ligand. In such case, the integrin would be allowed to bind the immobilized ligand prior to measuring dissociation rates.
To verify the effect of RGD-type ligands on the dissociation of fibrinogen from IIB-IIIa, dissociation rates were measured in real time using Surface Plasmon Resonance (SPR).

In the case of fibrinogen, at purified IIb-IIIa [1], the “blocking of binding of 125I-Fab-9 to IIb-IIIa” value is recorded as “failed to block”. Also, at purified IIb-IIIa [2], the “off-rate of fibrinogen from IIb-IIIa before 52012” value is 6e-05 s⁻¹.

The values are drawn from US6184206A, “Integrin ligand dissociators” (The Burnham Institute, priority 1998, dated 2001).
